Measured values published in patent publication US9624229B2, “Pyrimidine-2-amine compounds and their use as inhibitors of JAK kinases” (Rigel Pharmaceuticals, Inc., priority 2008, dated 2017).
Where two headings read alike, the source gives them in different places.

Target: Ba/F3 V617F cells (Homo sapiens, UniProt O60674, V617F, cells depend on it)
Assay: Proliferation assay (Cell Titer-Glo, 72 h) utilizing Ba/F3 V617F cells
Assay type: cell-based, mouse
Settings: Ba/F3 V617F cells, proliferation
Method in brief: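 Readout is CellTiter-Glo luminescence after 72 h at 37 °C, giving IC50. Cells: Ba/F3 V617F, 1×10^5 cells/mL in RPMI with 10% FBS, treated in duplicate with 3-fold dilution series made from 5 mM DMSO stock, 1:250 in 5% FBS medium, added at 2×.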

[1] = level of activity to inhibit JAK2, read-out: IC50 (the source's name)
[2] = level of activity given as class symbol, read-out: IC50 (the source's name)

Chain of Ba/F3 V617F cells (O60674 whole entry V617F): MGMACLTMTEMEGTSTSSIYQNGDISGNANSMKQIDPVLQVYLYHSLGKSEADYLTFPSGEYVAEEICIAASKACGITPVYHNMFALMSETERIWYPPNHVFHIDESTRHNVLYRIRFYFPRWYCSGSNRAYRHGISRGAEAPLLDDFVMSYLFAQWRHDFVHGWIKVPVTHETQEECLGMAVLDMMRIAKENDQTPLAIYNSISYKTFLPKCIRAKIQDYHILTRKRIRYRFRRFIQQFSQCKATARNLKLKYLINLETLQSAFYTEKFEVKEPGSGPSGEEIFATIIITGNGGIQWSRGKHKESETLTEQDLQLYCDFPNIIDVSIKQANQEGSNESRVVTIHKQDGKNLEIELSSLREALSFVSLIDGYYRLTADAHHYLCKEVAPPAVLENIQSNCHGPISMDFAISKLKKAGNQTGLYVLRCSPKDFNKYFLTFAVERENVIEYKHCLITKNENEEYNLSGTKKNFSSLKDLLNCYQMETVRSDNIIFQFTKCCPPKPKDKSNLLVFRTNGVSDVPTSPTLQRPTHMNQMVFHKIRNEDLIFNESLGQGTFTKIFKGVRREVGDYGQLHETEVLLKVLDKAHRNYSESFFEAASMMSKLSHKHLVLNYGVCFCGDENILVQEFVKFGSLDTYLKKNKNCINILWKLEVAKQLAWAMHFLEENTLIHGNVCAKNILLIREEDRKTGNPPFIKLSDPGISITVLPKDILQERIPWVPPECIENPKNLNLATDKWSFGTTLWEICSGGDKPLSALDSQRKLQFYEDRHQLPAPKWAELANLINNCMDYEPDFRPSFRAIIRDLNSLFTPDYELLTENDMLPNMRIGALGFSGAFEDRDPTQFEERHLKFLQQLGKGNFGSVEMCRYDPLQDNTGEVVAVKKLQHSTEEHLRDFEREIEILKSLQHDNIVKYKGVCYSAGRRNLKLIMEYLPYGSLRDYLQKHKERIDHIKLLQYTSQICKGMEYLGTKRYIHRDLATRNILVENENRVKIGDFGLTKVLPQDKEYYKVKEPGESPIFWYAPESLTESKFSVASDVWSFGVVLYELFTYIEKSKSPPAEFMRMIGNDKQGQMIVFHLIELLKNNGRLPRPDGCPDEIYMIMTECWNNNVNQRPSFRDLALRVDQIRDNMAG

Structure (SMILES) | GI50 [1] [µM] | GI50 [2] [µM]
CN1C[C@@H]2C[C@H]1CN2c1ccc(Nc2nccc(-c3ccc(NCc4ccccc4)nc3)n2)cc1F [compound 81, 4-(6-(benzylamino)pyridin-3-yl)-N-(3-fluoro-4-((1S,4S)-5-methyl-2,5-diazabicyclo[2.2.1]heptan-2-yl)phenyl)pyrimidin-2-amine] | < 1 | 
CCN(CC)c1nc(-c2ccnc(Nc3ccc(N4C[C@@H]5C[C@H]4CN5C)c(C)c3)n2)cs1 [compound 163, 4-(2-(diethylamino)thiazol-4-yl)-N-(3-methyl-4-((1S,4S)-5-methyl-2,5-diazabicyclo[2.2.1]heptan-2-yl)phenyl)pyrimidin-2-amine] | < 1 | 
Cc1cc(Nc2nccc(-c3cnc4c(c3)OCCN4)n2)ccc1N1C[C@@H]2C[C@H]1CN2C [compound 86, 4-(3,4-dihydro-2H-pyrido[3,2-b][1,4]oxazin-7-yl)-N-(3-methyl-4-((1S,4S)-5-methyl-2,5-diazabicyclo[2.2.1]heptan-2-yl)phenyl)pyrimidin-2-amine] | < 1 | 
Cc1cc(Nc2nccc(-c3ccc(Cc4ccccc4)nc3)n2)ccc1N1CC2(C)CN(C)CC(C)(C1)C2 [compound 90, 4-(6-(benzyl)pyridin-3-yl)-N-(3-methyl-4-(1,5,7-trimethyl-3,7-diazabicyclo[3.3.1]nonan-3-yl)phenyl)pyrimidin-2-amine] | < 1 | 
CN1C[C@@H]2C[C@H]1CN2c1ccc(Nc2nccc(-c3cncc(S(C)(=O)=O)c3)n2)cc1C(F)(F)F [compound 102, 4-(5-(methyl)sulfonylpyridin-3-yl)-N-(3-trifluoromethyl-4-((1S,4S)-5-methyl-2,5-diazabicyclo[2.2.1]heptan-2-yl)phenyl)pyrimidin-2-amine] | < 1 | 
Cc1cc(Nc2nccc(-c3ccc(N4C[C@@H](C)O[C@@H](C)C4)nc3)n2)ccc1N1C[C@@H]2C[C@H]1CN2C [compound 187, 4-(6-(cis-2,6-dimethylmorpholin-4-yl)pyridin-3-yl)-N-(3-methyl-4-((1S,4S)-5-methyl-2,5-diazabicyclo[2.2.1]heptan-2-yl)phenyl)pyrimidin-2-amine] |  | < 1
Cc1cc(Nc2nccc(-c3ccc(N4CCOCC4)nc3)n2)ccc1N1CC2CCC(C1)N2C [compound 166, 4-(6-(morpholin-4-yl)pyridin-3-yl)-N-(3-methyl-4-(8-methyl-3,8-diazabicyclo[3.2.1]octan-3-yl)phenyl)pyrimidin-2-amine] | < 1 | 
CN1C[C@@H]2C[C@H]1CN2c1ccc(Nc2nccc(-c3cc[nH]c3)n2)cc1 [compound 170, 4-(1H-pyrrol-3-yl)-N-(4-((1S,4S)-5-methyl-2,5-diazabicyclo[2.2.1]heptan-2-yl)phenyl)pyrimidin-2-amine] | 1 to 10 | 
CCCNc1ncc(-c2ccnc(Nc3ccc(N4C[C@@H]5C[C@H]4CN5C)c(C)c3)n2)cn1 [compound 92, 4-(2-(propyl)aminopyrimidin-5-yl)-N-(3-methyl-4-((1S,4S)-5-methyl-2,5-diazabicyclo[2.2.1]heptan-2-yl)phenyl)pyrimidin-2-amine] | < 1 | 
Cc1cc(Nc2nccc(-c3cnc4c(c3)OC(C)(C)C(=O)N4)n2)ccc1N1C[C@@H]2C[C@H]1CO2 [compound 27, 4-(2,2-dimethyl-3-oxo-3,4-dihydro-2H-pyrido[3,2-b][1,4]oxazin-7-yl)-N-(3-methyl-4-((1S,4S)-5-oxa-2-azabicyclo[2.2.1]heptan-2-yl)phenyl)pyrimidin-2-amine] | < 1 | 
Cc1cc(Nc2nccc(-c3ccc(NS(C)(=O)=O)nc3)n2)ccc1N1C[C@@H]2C[C@H]1CN2C [compound 151, 4-(6-(methylsulfonylamino)pyridin-3-yl)-N-(3-methyl-4-((1S,4S)-5-methyl-2,5-diazabicyclo[2.2.1]heptan-2-yl)phenyl)pyrimidin-2-amine] | 1 to 10 | 
CN1C[C@@H]2C[C@H]1CN2c1ccc(Nc2nccc(-c3ccc(NC(=O)NC4CC4)cc3)n2)cc1 [compound 139, 4-(4-(3-cyclopropylureido)phenyl)-N-(4-((1S,4S)-5-methyl-2,5-diazabicyclo[2.2.1]heptan-2-yl)phenyl)pyrimidin-2-amine] | < 1 | 
CC(=O)Nc1ccc(-c2ccnc(Nc3ccc(N4C[C@@H]5C[C@H]4CO5)c(C)c3)n2)cn1 [compound 147, 4-(6-(acetamido)pyridin-3-yl)-N-(3-methyl-4-((1S,4S)-5-oxa-2-azabicyclo[2.2.1]heptan-2-yl)phenyl)pyrimidin-2-amine] | < 1 | 
COc1ccc2cc(-c3ccnc(Nc4ccc(N5C[C@@H]6C[C@H]5CN6C)c(C)c4)n3)[nH]c2c1 [compound 105, 4-(6-methoxy-1H-indol-2-yl)-N-(3-methyl-4-((1S,4S)-5-methyl-2,5-diazabicyclo[2.2.1]heptan-2-yl)phenyl)pyrimidin-2-amine] | < 1 | 
Cc1cc(Nc2nccc(-c3cnc4c(c3)OCCN4C)n2)ccc1N1C[C@@H]2C[C@H]1CN2S(C)(=O)=O [compound 193, 4-(4-methyl-3,4-dihydro-2H-pyrido[3,2-b][1,4]oxazin-7-yl)-N-(3-methyl-4-((1S,4S)-5-methylsulfonyl-2,5-diazabicyclo[2.2.1]heptan-2-yl)phenyl)pyrimidin-2-amine] |  | < 1
CCN1C[C@@H]2C[C@H]1CN2c1ccc(Nc2nccc(-c3ccc(N4CCOCC4)nc3)n2)cc1C [compound 25, 4-(6-(morpholin-4-yl)pyridin-3-yl)-N-(3-methyl-4-((1S,4S)-5-ethyl-2,5-diazabicyclo[2.2.1]heptan-2-yl)phenyl)pyrimidin-2-amine] | < 1 | 

The next lines start with the values.

GI50 [1] [µM] | GI50 [2] [µM] | Structure (SMILES)
 | 1 to 10 | CCC(=O)N1C[C@@H]2C[C@H]1CN2c1ccc(Nc2nccc(-c3ccc(NCCN4CCOCC4)nc3)n2)cc1C [compound 197, 4-(6-(2-(morpholin-4-yl)ethyl)aminopyridin-3-yl)-N-(3-methyl-4-((1S,4S)-5-ethylcarbonyl-2,5-diazabicyclo[2.2.1]heptan-2-yl)phenyl)pyrimidin-2-amine]
 | < 1 | Cc1cc(Nc2nccc(-c3ccc(N4C[C@@H]5C[C@H]4CO5)nc3)n2)ccc1N1C[C@@H]2C[C@H]1CN2C [compound 215, 4-(6-((1S,4S)-2-oxa-5-azabicyclo[2.2.1]heptan-5-yl)pyridin-3-yl)-N-(3-methyl-4-((1S,4S)-5-methyl-2,5-diazabicyclo[2.2.1]heptan-2-yl)phenyl)pyrimidin-2-amine]
 | < 1 | Cc1cc(Nc2nccc(-c3cnc(N)c(CCCC(=O)OC(C)C)c3)n2)ccc1N1C[C@@H]2C[C@H]1CN2C [compound 253, 4-(5-(1-methylethoxy)carbonylpropyl-6-aminopyridin-3-yl)-N-(3-methyl-4-((1S,4S)-5-methyl-2,5-diazabicyclo[2.2.1]heptan-2-yl)phenyl)pyrimidin-2-amine]
 | < 1 | Cc1cc(Nc2nccc(-c3ccc(N4CCCOCC4)nc3)n2)ccc1N1C[C@@H]2C[C@H]1CN2C [compound 206, 4-(6-(1,4-oxazepan-4-yl)pyridin-3-yl)-N-(3-methyl-4-((1S,4S)-5-methyl-2,5-diazabicyclo[2.2.1]heptan-2-yl)phenyl)pyrimidin-2-amine]
 | < 1 | CC(=O)N1C[C@@H]2C[C@H]1CN2c1ccc(Nc2nccc(-c3ccc(N4CCOCC4)nc3)n2)cc1Cl [compound 259, 4-(6-(morpholin-4-yl)pyridin-3-yl)-N-(3-chloro-4-((1S,4S)-5-acetyl-2,5-diazabicyclo[2.2.1]heptan-2-yl)phenyl)pyrimidin-2-amine]
 | < 1 | COCCN(C)c1ccc(-c2ccnc(Nc3ccc(N4CC5(C)CN(C)CC(C)(C4)C5)c(C)c3)n2)cn1 [compound 221, 4-(6-(2-methoxyethyl)(methyl)aminopyridin-3-yl)-N-(3-methyl-4-(1,5,7-trimethyl-3,7-diazabicyclo[3.3.1]nonan-3-yl)phenyl)pyrimidin-2-amine]
 | < 1 | CCCNc1ccc(-c2ccnc(Nc3ccc(N4C[C@@H]5C[C@H]4CO5)c(C)c3)n2)cn1 [compound 202, 4-(6-(propylamino)pyridin-3-yl)-N-(3-methyl-4-((1S,4S)-5-oxa-2-azabicyclo[2.2.1]heptan-2-yl)phenyl)pyrimidin-2-amine]
 | < 1 | Cc1cc(Nc2nccc(-c3ccc(OC4CCOCC4)nc3)n2)ccc1N1C[C@@H]2C[C@H]1CN2C1CCCC1 [compound 262, 4-(6-(tetrahydropyran-4-yloxy)pyridin-3-yl)-N-(3-methyl-4-((1S,4S)-5-cyclopentyl-2,5-diazabicyclo[2.2.1]heptan-2-yl)phenyl)pyrimidin-2-amine]
 | 1 to 10 | Cc1cc(Nc2nccc(-c3cnc4[nH]c5c(c4c3)CCCC5)n2)ccc1N1C[C@@H]2C[C@H]1CN2C [compound 267, 4-(6,7,8,9-tetrahydro-5H-pyrido[2,3-b]indol-3-yl)-N-(3-methyl-4-((1S,4S)-5-methyl-2,5-diazabicyclo[2.2.1]heptan-2-yl)phenyl)pyrimidin-2-amine]
 | < 1 | Cc1cc(Nc2nccc(-c3cnc4c(c3)OC(C)(C)C(=O)N4)n2)ccc1N1C[C@@H]2C[C@H]1CN2C(C)C [compound 246, 4-(2,2-dimethyl-3-oxo-3,4-dihydro-2H-pyrido[3,2-b][1,4]oxazin-7-yl)-N-(3-methyl-4-((1S,4S)-5-(1-methylethyl)-2,5-diazabicyclo[2.2.1]heptan-2-yl)phenyl)pyrimidin-2-amine]
 | < 1 | CCOCCCNc1ccc(-c2ccnc(Nc3ccc(N4CC5(C)CN(C)CC(C)(C4)C5)c(C)c3)n2)cn1 [compound 211, 4-(6-(3-ethoxypropyl)aminopyridin-3-yl)-N-(3-methyl-4-(1,5,7-trimethyl-3,7-diazabicyclo[3.3.1]nonan-3-yl)phenyl)pyrimidin-2-amine]
 | < 1 | Cc1cc(Nc2nccc(-c3ccc(OC4CCOCC4)nc3)n2)ccc1N1CCN2CCC1C2 (stereo not shown) [compound 275, 4-(6-(tetrahydropyran-4-yloxy)pyridin-3-yl)-N-(3-methyl-4-(1,4-diazabicyclo[3.2.1]octan-4-yl)phenyl)pyrimidin-2-amine]
